inhibition, Activity and IC50 data for one compound are collected here from ChEMBL document CHEMBL5537181 (J Med Chem, 2024).

Broadly, the inhibition is how much of the control response was suppressed. By IC50 is commonly meant the concentration at which inhibition is half-maximal.

The target of data set [1] is Neuronal acetylcholine receptor subunit alpha-7 (Rattus norvegicus) (UniProt Q05941). Nature of the data set: Antagonist activity at rat alpha7 nAChR expressed in acetylcholine-induced Xenopus laevis oocytes assessed as inhibition of acetylcholine-induced current at 30 nM by two electrode voltage-clamp assay relative to control. Format: cell-based. To be noted: Oocyte. For orientation: In two-electrode clamp one electrode senses voltage and the other passes current.

Data set [2] shares this target. The experiment in a line: Antagonist activity at rat alpha7 nAChR expressed in acetylcholine-induced Xenopus laevis oocytes assessed as inhibition of acetylcholine-induced current at 100 nM by two electrode voltage-clamp assay relative to control. To be noted: Oocyte. Format: cell-based.
The nature of data set [3]: Toxicity in rat assessed as change in behavior at 250 microg/kg,IM administrated for 14 consecutive days by conditioned place preference assay. To be noted: in vivo, 0.25 mg/kg, dose 250 µg/kg.
The target in data set [4] is Sodium channel protein type 9 subunit alpha (Homo sapiens) (UniProt Q15858). Nature of the data set: Inhibition of Nav1.7 (unknown origin) at 1 uM.
Data set [5] in a line: Toxicity in rat assessed as motor impairment at 250 microg/kg,IM administrated for 14 consecutive days by rotarod test. To be noted: in vivo, 0.25 mg/kg, dose 250 µg/kg. In general terms: Falling from the rotarod earlier than controls is read as motor impairment.
Data set [6] addresses T1, Neuronal acetylcholine receptor; alpha9/alpha10 (Homo sapiens) (UniProt Q9UGM1+Q9GZZ6). Nature of the data set: Antagonist activity at human alpha9alpha10 nAChR expressed in acetylcholine-induced Xenopus laevis oocytes assessed as inhibition of acetylcholine-induced current at 30 nM at -40 mV holding potential by two electrode voltage-clamp assay. Format: cell-based. To be noted: Oocyte, filed as antagonist.

A short description of data set [7]: Antagonist activity at human alpha9alpha10G152N mutant nAChR expressed in acetylcholine-induced Xenopus laevis oocytes assessed as inhibition of acetylcholine-induced current at 1:3 ratio of protein by two electrode voltage-clamp assay. Format: cell-based. To be noted: Oocyte.
In data set [8] the target is T1, Neuronal acetylcholine receptor; alpha9/alpha10 (Homo sapiens). Nature of the data set: Antagonist activity at human alpha9alpha10 nAChR expressed in acetylcholine-induced Xenopus laevis oocytes assessed as inhibition of acetylcholine-induced current at 30 nM at -120 mV holding potential by two electrode voltage-clamp assay. Format: cell-based. To be noted: Oocyte, filed as antagonist.

For data set [9], the target named is T2, Voltage-dependent N-type calcium channel subunit alpha-1B (Homo sapiens, UniProt Q00975). The experiment in a line: Inhibition of human Cav2.2 channel transfected in HEK293T cells co-expressed with human GABAB receptor assessed as inhibition of Cav2.2-mediated Ba2+ current at 100 nM in presence of CGP 55845 measured for 3 to 5 days by whole-cell patch clamp assay. To be noted: time 3-5 day. Format: cell-based.
Target sequence in this assay (Q00975 whole entry, looked up): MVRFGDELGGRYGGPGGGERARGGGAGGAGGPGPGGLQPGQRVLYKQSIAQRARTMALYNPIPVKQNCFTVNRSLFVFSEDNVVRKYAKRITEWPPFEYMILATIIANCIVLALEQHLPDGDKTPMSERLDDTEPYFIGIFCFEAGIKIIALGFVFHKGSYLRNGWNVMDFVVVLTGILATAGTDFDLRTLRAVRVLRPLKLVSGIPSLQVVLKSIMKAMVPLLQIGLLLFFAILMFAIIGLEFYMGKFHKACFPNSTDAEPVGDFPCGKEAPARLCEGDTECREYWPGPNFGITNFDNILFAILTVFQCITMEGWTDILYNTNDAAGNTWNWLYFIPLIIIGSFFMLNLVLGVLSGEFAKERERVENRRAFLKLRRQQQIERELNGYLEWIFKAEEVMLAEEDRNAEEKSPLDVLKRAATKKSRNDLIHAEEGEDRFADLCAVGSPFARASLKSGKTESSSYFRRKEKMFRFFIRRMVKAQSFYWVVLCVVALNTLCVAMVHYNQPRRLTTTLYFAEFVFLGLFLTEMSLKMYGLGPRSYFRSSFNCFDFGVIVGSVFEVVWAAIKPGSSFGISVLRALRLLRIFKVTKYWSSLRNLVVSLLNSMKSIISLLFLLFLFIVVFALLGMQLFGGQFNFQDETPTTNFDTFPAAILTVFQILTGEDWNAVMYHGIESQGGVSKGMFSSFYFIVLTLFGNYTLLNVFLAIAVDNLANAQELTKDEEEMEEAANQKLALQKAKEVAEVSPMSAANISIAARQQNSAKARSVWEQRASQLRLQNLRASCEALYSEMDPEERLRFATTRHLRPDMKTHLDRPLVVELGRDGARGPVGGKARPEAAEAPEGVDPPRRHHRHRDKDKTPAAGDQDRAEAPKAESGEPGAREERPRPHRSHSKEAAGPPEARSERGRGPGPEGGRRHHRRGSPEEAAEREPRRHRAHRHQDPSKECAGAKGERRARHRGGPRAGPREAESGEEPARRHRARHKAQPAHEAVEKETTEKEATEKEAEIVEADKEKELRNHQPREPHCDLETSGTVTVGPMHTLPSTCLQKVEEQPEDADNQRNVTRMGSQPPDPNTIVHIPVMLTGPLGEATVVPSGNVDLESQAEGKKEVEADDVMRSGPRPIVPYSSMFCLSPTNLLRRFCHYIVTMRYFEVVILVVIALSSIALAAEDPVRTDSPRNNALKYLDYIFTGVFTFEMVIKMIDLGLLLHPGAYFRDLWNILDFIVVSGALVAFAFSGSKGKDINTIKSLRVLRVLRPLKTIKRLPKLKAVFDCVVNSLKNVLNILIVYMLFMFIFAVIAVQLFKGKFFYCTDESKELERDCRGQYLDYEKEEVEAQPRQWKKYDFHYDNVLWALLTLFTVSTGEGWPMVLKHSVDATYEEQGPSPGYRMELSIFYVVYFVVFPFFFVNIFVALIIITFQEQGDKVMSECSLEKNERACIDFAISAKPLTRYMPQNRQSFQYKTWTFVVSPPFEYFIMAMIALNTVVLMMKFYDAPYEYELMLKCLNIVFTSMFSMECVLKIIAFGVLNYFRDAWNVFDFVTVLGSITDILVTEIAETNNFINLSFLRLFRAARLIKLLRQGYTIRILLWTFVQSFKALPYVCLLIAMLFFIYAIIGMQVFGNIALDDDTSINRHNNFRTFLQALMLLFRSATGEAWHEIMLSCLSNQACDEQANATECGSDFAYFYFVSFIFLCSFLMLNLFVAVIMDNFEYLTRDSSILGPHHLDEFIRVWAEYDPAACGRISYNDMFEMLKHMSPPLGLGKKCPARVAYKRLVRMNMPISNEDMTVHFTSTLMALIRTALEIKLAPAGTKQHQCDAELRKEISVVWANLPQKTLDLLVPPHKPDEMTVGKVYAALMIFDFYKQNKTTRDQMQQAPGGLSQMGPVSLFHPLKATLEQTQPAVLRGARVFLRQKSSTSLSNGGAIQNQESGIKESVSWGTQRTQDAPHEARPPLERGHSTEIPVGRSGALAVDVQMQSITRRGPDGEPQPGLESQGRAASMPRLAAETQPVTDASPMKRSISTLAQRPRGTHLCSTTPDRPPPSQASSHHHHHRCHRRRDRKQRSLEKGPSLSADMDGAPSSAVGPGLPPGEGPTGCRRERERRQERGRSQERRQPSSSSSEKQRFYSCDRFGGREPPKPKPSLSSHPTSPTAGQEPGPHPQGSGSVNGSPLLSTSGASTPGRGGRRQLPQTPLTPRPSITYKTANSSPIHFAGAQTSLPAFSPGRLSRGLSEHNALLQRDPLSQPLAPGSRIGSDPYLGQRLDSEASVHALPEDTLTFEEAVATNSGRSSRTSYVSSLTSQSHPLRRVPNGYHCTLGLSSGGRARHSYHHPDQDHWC

Data set [10] has as its target Neuronal acetylcholine receptor; alpha3/beta4 (Rattus norvegicus) (UniProt P04757+P12392). Nature of the data set: Antagonist activity at rat alpha3beta4 nAChR expressed in acetylcholine-induced Xenopus laevis oocytes assessed as inhibition of acetylcholine-induced current at 100 nM by two electrode voltage-clamp assay relative to control. Format: cell-based. To be noted: Oocyte.

The target of data set [11] is Neuronal acetylcholine receptor subunit alpha-7 (Homo sapiens, UniProt P36544). Nature of the data set: Antagonist activity at human alpha7 nAChR expressed in acetylcholine-induced Xenopus laevis oocytes assessed as inhibition of acetylcholine-induced current at 30 nM by two electrode voltage-clamp assay. Format: cell-based. To be noted: Oocyte, filed as antagonist.

The subject of data set [12] is Rattus norvegicus. Nature of the data set: Analgesic activity in Chronic constriction injury rat model assessed as decrease in hyperalgesia at 0.25 to 25 microg/kg,IM administrated every 2 hrs for 14 days. Format: functional, organism-based. To be noted: dose 0.25-25 µg/kg, time 14.0 day.
In data set [13] the target is Nicotinic acetylcholine receptor alpha9/alpha10 (Rattus norvegicus, UniProt P43144+Q9JLB5). The experiment in a line: Antagonist activity at rat wild type alpha9alpha10 nAChR expressed in acetylcholine-induced Xenopus laevis oocytes assessed as inhibition of acetylcholine-induced current at 1:1 ratio of protein by two electrode voltage-clamp assay. Format: cell-based, Oocyte.

Data set [14] has as its target T2, Voltage-dependent N-type calcium channel subunit alpha-1B. The experiment in a line: Inhibition of human Cav2.2 channel transfected in HEK293T cells assessed as inhibition of Cav2.2-mediated Ba2+ current at 1 uM measured for 3 to 5 days by whole-cell patch clamp assay. To be noted: time 3-5 day. Format: cell-based. For orientation: In patch-clamp work, channel activity is measured electrically.
Target sequence in this assay (Q00975 whole entry, looked up): as above

Data set [15] is described as follows: Antagonist activity at human alpha9N152G mutant alpha10 nAChR expressed in acetylcholine-induced Xenopus laevis oocytes assessed as inhibition of acetylcholine-induced current at 1:3 ratio of protein by two electrode voltage-clamp assay. Format: cell-based. To be noted: Oocyte.
The subject of data set [16] is Rattus norvegicus. Nature of the data set: Analgesic activity in Chronic constriction injury rat model assessed as decrease in hyperalgesia at 250 microg/kg,IM administration and measured for 0.5 to 48 hrs. Format: functional, organism-based. To be noted: dose 250.0 µg/kg, time 0.5-48 hrs.
The target in data set [17] is Neuronal acetylcholine receptor; alpha4/beta2 (Rattus norvegicus) (UniProt P09483+P12390). The experiment in a line: Antagonist activity at rat alpha4beta2 nAChR expressed in acetylcholine-induced Xenopus laevis oocytes assessed as inhibition of acetylcholine-induced current at 100 nM by two electrode voltage-clamp assay. Format: cell-based. To be noted: Oocyte.
Data set [18] addresses T1, Neuronal acetylcholine receptor; alpha9/alpha10 (Homo sapiens). Nature of the data set: Antagonist activity at human wild type alpha9alpha10 nAChR expressed in acetylcholine-induced Xenopus laevis oocytes assessed as inhibition of acetylcholine-induced current at 30 nM by two electrode voltage-clamp assay relative to control. Format: cell-based. To be noted: Oocyte, filed as antagonist.

Data set [19] has as its target T3, Potassium voltage-gated channel subfamily KQT member 3 (Homo sapiens) (UniProt O43525).
T3 sequence (whole entry): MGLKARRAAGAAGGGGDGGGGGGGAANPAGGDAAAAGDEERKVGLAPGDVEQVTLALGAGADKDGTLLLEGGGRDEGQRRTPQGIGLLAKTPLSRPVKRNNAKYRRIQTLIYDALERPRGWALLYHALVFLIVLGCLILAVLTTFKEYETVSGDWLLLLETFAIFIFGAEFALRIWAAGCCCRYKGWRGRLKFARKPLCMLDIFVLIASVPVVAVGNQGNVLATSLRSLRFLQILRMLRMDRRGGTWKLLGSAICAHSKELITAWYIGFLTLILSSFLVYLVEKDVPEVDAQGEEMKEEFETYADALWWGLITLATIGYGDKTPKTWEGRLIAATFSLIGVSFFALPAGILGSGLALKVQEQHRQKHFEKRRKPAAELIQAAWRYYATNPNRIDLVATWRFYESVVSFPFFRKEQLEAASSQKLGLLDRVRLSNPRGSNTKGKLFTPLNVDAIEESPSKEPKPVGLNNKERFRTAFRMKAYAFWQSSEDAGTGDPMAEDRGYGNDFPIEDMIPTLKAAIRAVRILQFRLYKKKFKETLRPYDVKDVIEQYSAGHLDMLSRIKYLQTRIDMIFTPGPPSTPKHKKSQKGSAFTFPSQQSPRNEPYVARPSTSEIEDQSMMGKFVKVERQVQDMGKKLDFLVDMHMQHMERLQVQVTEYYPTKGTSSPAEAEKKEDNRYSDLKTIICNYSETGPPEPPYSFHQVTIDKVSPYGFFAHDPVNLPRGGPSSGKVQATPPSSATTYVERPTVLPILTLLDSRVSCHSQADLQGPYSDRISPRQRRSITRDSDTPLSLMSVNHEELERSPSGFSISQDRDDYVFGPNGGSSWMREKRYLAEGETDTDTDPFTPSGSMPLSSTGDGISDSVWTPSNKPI
The experiment in a line: Inhibition of KCNQ3 (unknown origin) at 1 uM.

In data set [20] the target is T2, Voltage-dependent N-type calcium channel subunit alpha-1B. Nature of the data set: Inhibition of human Cav2.2 channel transfected in HEK293T cells assessed as inhibition of Cav2.2-mediated Ba2+ current measured for 3 to 5 days by whole-cell patch clamp assay. Format: cell-based.
Target sequence in this assay (Q00975 whole entry): as the sequence (Q00975 whole entry, looked up) above
For data set [21] the target is unchanged. The experiment in a line: Inhibition of human Cav2.2 channel transfected in HEK293T cells assessed as inhibition of Cav2.2-mediated Ba2+ current at 1 uM measured for 3 to 5 days by whole-cell patch clamp assay relative to control. Format: cell-based. To be noted: time 3-5 day.
Target sequence in this assay (Q00975 whole entry, looked up): as the sequence (Q00975 whole entry, looked up) above

Calls of active or inactive are those of the source. No cut-off for these calls is given here.

Sequence of Neuronal acetylcholine receptor subunit alpha-7 (Rattus norvegicus) (Q05941 whole entry): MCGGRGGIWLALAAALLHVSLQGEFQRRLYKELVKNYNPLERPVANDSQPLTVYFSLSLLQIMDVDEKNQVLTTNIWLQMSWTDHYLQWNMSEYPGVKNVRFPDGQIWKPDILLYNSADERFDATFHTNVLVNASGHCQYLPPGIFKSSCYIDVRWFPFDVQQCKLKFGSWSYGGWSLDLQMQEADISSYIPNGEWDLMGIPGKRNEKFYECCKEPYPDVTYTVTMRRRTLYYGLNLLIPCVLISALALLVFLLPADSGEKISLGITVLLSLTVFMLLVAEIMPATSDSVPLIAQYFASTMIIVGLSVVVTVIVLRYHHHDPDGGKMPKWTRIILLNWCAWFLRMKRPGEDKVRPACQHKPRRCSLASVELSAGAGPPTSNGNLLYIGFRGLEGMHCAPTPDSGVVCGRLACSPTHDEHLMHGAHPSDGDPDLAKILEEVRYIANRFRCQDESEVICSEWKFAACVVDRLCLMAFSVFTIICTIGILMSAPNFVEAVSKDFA
Sequence of Neuronal acetylcholine receptor subunit alpha-7 (P36544 whole entry): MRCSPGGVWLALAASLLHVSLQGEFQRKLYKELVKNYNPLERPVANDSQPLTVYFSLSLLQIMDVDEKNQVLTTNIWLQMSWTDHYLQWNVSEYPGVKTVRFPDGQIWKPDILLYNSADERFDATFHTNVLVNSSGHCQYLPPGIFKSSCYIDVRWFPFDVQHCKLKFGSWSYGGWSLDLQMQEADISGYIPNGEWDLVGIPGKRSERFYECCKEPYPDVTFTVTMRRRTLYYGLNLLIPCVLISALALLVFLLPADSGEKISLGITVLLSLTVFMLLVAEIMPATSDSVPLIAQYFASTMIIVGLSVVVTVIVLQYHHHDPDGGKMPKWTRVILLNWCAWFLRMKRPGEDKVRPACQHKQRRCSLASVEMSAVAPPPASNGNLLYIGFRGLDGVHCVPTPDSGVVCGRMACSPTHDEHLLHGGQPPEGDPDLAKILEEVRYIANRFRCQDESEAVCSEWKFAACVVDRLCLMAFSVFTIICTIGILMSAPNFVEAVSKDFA
Sequence of Nicotinic acetylcholine receptor alpha9/alpha10 (P43144 whole entry): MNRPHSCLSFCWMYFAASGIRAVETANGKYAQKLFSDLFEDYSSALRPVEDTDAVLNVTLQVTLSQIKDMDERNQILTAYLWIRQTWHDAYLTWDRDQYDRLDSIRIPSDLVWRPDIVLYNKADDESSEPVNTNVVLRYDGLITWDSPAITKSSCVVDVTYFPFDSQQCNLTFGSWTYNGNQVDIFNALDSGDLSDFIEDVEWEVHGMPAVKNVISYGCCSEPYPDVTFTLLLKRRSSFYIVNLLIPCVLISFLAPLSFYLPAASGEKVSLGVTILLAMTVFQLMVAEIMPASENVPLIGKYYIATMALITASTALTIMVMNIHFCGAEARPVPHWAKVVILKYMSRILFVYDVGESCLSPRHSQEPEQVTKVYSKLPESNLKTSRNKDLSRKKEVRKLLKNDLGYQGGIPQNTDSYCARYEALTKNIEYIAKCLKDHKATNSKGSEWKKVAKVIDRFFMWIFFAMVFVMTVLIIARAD
Sequence of Nicotinic acetylcholine receptor alpha9/alpha10 (Q9JLB5 whole entry): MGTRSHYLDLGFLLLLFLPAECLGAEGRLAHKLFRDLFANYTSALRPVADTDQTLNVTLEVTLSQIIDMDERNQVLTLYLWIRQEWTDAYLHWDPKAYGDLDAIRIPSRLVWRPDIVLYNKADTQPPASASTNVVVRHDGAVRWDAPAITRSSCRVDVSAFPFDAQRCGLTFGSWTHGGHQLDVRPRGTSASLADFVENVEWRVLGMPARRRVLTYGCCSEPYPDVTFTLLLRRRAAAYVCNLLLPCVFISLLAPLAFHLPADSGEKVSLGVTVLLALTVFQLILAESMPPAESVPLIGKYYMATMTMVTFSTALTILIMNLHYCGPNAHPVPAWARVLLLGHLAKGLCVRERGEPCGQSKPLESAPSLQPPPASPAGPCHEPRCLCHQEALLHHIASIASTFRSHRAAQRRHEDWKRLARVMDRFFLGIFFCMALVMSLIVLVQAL

With `CC[C@H](C)[C@H](NC(=O)[C@H](CCCNC(=N)N)NC(=O)[C@H](CCCNC(=N)N)NC(=O)[C@H](Cc1ccc(O)cc1)NC(=O)[C@H](CCCNC(=N)N)NC(=O)[C@H](CCCNC(=N)N)NC(=O)[C@H](CCCNC(=N)N)NC(=O)[C@H](CCCNC(=N)N)NC(=O)[C@H](CC(=O)O)NC(=O)[C@H](Cc1ccc(O)cc1)NC(=O)[C@@H]1CCCN1C(=O)[C@H](CO)NC(=O)[C@H](CCCNC(=N)N)NC(=O)[C@H](Cc1ccc(O)cc1)NC(=O)[C@H](CCCNC(=N)N)NC(=O)CN)C(=O)N[C@H](C(=O)N[C@@H](CC(=O)O)C(N)=O)[C@@H](C)O`, the inhibition amounted to 10% in data set [1]; 35% in [2]; 20% in data set [10]; 40% in data set [11]; 50% in data set [18]; 53.6% in data set [21]. Besides, the Activity entry in data set [3] and in [5] was “Non-Toxic” in each case. Moreover, the inhibition entry in data set [4], in data set [9], in [14], in data set [17] and in [19] was “inactive” in each case. In addition, the inhibition entry in data set [6] and in [8] was “Active” in each case. Moreover, the IC50 is 21 nM in [7], 18.3 nM in [13], 8.8 nM in data set [15] and 4.6 nM in [20]. The result in [12] and in [16] was Active.
